Numbered stars: 1 amine (or outer) side, 2 acyl side, 3 side chain; on linkers, the order of the positions; unused ones are H or OH. Bridge positions count the residues as written; N and C are the ends. Square brackets hold non-standard residues; d marks the D form. Peptide text beside a SMILES is read from it. * marks the point of attachment. dPhe(3-CF3) = N[C@H](Cc1cccc(C(F)(F)F)c1)C(=O)O; dPhe(4-CF3) = N[C@H](Cc1ccc(C(F)(F)F)cc1)C(=O)O; dPhe(2-CF3) = N[C@H](Cc1ccccc1C(F)(F)F)C(=O)O; Bip = N[C@@H](Cc1ccc(-c2ccccc2)cc1)C(=O)O; dPhe(4-Cl) = N[C@H](Cc1ccc(Cl)cc1)C(=O)O; Phe(4-NH2) = Nc1ccc(C[C@H](N)C(=O)O)cc1; dPhe(2-Me) = Cc1ccccc1C[C@@H](N)C(=O)O; d(β3hF) = N[C@@H](CC(=O)O)Cc1ccccc1; dNMeF = CN[C@H](Cc1ccccc1)C(=O)O; Cha = N[C@@H](CC1CCCCC1)C(=O)O; d2Thi = N[C@H](Cc1cccs1)C(=O)O; d3Thi = N[C@H](Cc1ccsc1)C(=O)O; dPhg = N[C@@H](C(=O)O)c1ccccc1; Suc = O=C(CCC(=O)[*:2])[*:1]; Nphe = O=C(O)CNCc1ccccc1; OtBu = CC(C)(C)O*

The target of the assay is T1, TNFα / TNFα receptor (TNFα R1/Fc) (Homo sapiens, UniProt P01375).
T1 construct: purchased R&D Systems
T1 sequence (P01375 77-233 limits assumed, species assumed): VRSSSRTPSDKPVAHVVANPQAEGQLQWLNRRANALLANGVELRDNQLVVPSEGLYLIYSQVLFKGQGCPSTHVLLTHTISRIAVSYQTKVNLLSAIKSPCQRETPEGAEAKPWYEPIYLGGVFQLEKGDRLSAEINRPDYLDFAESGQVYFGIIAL
Briefly: Inhibition of binding of TNFα to the TNFα receptor (plate ELISA competition). As to conditions: Table 2; read-out: Activity (IC50, inhibition of TNFα binding to TNFα R1/Fc). The protocol:
The compounds listed in Table 2 below were assayed for ability to inhibit binding of TNFα to the TNFα receptor (TNFα R1/Fc). The assays were performed as described in the following procedure: TNFα (R&D Systems) was coated on high binding plate wells (Corning 96-well) at a single uniform concentration of 15 nM, 100 μL/well in PBS. The coating proceeded for 30 minutes at 37° C. then 10 minutes at 4° C. The coated plate was washed with PBST, then 250 μL/well of blocking solution (PBST 0.1% BSA, bovine serum albumin) was added and incubation proceeded for 30-45 minutes at room temperature with agitation. The solution phase competition proceeded separately with the dilutions of test compound in PBST (phosphate buffered saline with Tween 20), 2% DMSO in a polypropylene plate (Corning 96-well storage plate) with a single concentration, 8.33 nM of the high affinity receptor for TNFα (R&D Systems). This solution phase incubation proceeded for 30 minutes at room temperature with agitation and was then added to the washed TNFα coated assay plate, 100 μL/well, and was incubated for a further 30 minutes at room temperature with agitation. The assay plate was washed and 100 μL goat anti-human IgG (Fc) HRP labeled antibody in PBST, 13 pM, (KPL Cat#04-10-2) was added to each well. This incubation proceeded for 25-30 minutes at room temperature with agitation. Following this incubation step, the plate was washed and a 100 μL TMB solution (SUREBLUE™ TMB Peroxidase substrate, KPL) was added per well and allowed to stand approximately 3-5 minutes for development. The TMB reaction was stopped with the addition of 0.5N HCl and then the plate was read for absorbance at 450 nm.
A general note: An ELISA detects its analyte on a solid surface through an enzyme-linked reagent.
As to `CC(C)C[C@@H]1NC(=O)[C@H](Cc2ccc(-c3ccccc3)cc2)NC(=O)[C@@H](Cc2cccs2)NC(=O)CCC(=O)Nc2ccc(cc2)C[C@@H](C(=O)O)NC1=O` [Compound 54] ([d2Thi][Bip]L[Phe(4-NH2)]-OH; linker N-4 via Suc), the IC50 is more than 100 µM.
For `O=C1CCC(=O)N[C@H](Cc2cccs2)C(=O)N[C@@H](Cc2ccc(-c3ccccc3)cc2)C(=O)N(Cc2ccccc2)CC(=O)N[C@H](C(=O)O)Cc2ccc(cc2)N1` [Compound 55] ([d2Thi][Bip][Nphe][Phe(4-NH2)]-OH; linker N-4 via Suc) the value was more than 100 µM; for `O=C1CCC(=O)N[C@H](Cc2cccs2)C(=O)N[C@@H](Cc2ccc(-c3ccccc3)cc2)C(=O)N[C@H](Cc2ccccc2)CC(=O)N[C@H](C(=O)O)Cc2ccc(cc2)N1` [Compound 56] ([d2Thi][Bip][d(β3hF)][Phe(4-NH2)]-OH; linker N-4 via Suc), more than 100 µM.
In the case of `CN1C(=O)[C@H](Cc2ccc(-c3ccccc3)cc2)NC(=O)[C@@H](Cc2cccs2)NC(=O)CCC(=O)Nc2ccc(cc2)C[C@@H](C(=O)O)NC(=O)[C@H]1Cc1ccccc1` [Compound 57] ([d2Thi][Bip][dNMeF][Phe(4-NH2)]-OH; linker N-4 via Suc), the IC50 was more than 100 µM.
For `O=C1CCC(=O)N[C@H](Cc2cccs2)C(=O)N[C@@H](Cc2ccc(-c3ccccc3)cc2)C(=O)N[C@@H](Cc2ccc(O)cc2)C(=O)N[C@H](C(=O)O)Cc2ccc(cc2)N1` [Compound 58] ([d2Thi][Bip]Y[Phe(4-NH2)]-OH; linker N-4 via Suc) the value was more than 100 µM; for `O=C1CCC(=O)N[C@H](Cc2cccs2)C(=O)N[C@@H](Cc2ccc(-c3ccccc3)cc2)C(=O)N[C@H](Cc2ccc(O)cc2)C(=O)N[C@H](C(=O)O)Cc2ccc(cc2)N1` [Compound 59] ([d2Thi][Bip][dY][Phe(4-NH2)]-OH; linker N-4 via Suc), more than 100 µM; for `O=C1CCC(=O)N[C@H](Cc2cccs2)C(=O)N[C@@H](Cc2ccc(-c3ccccc3)cc2)C(=O)N[C@@H](CO)C(=O)N[C@H](C(=O)O)Cc2ccc(cc2)N1` [Compound 60] ([d2Thi][Bip]S[Phe(4-NH2)]-OH; linker N-4 via Suc), more than 100 µM.
Take `O=C1CCC(=O)N[C@H](Cc2cccs2)C(=O)N[C@@H](Cc2ccc(-c3ccccc3)cc2)C(=O)N[C@H](CO)C(=O)N[C@H](C(=O)O)Cc2ccc(cc2)N1` [Compound 61] ([d2Thi][Bip][dS][Phe(4-NH2)]-OH; linker N-4 via Suc): the IC50 was more than 100 µM.
`CC(C)(C)OC(=O)C[C@@H]1NC(=O)[C@H](Cc2ccc(-c3ccccc3)cc2)NC(=O)[C@@H](Cc2cccs2)NC(=O)CCC(=O)Nc2ccc(cc2)C[C@@H](C(=O)O)NC1=O` [Compound 62] ([d2Thi][Bip]D(OtBu)[Phe(4-NH2)]-OH; linker N-4 via Suc): the IC50 was more than 100 µM.
Regarding `CC(C)(C)OC(=O)C[C@H]1NC(=O)[C@H](Cc2ccc(-c3ccccc3)cc2)NC(=O)[C@@H](Cc2cccs2)NC(=O)CCC(=O)Nc2ccc(cc2)C[C@@H](C(=O)O)NC1=O` [Compound 63] ([d2Thi][Bip][dD](OtBu)[Phe(4-NH2)]-OH; linker N-4 via Suc), the IC50 was more than 100 µM.
Turning to `O=C(O)C[C@@H]1NC(=O)[C@H](Cc2ccc(-c3ccccc3)cc2)NC(=O)[C@@H](Cc2cccs2)NC(=O)CCC(=O)Nc2ccc(cc2)C[C@@H](C(=O)O)NC1=O` [Compound 64] ([d2Thi][Bip]D[Phe(4-NH2)]-OH; linker N-4 via Suc), the IC50 is more than 100 µM.
For `O=C(O)C[C@H]1NC(=O)[C@H](Cc2ccc(-c3ccccc3)cc2)NC(=O)[C@@H](Cc2cccs2)NC(=O)CCC(=O)Nc2ccc(cc2)C[C@@H](C(=O)O)NC1=O` [Compound 65] ([d2Thi][Bip][dD][Phe(4-NH2)]-OH; linker N-4 via Suc), the IC50 is more than 100 µM.
Turning to `CC(C)(C)OC(=O)CC[C@@H]1NC(=O)[C@H](Cc2ccc(-c3ccccc3)cc2)NC(=O)[C@@H](Cc2cccs2)NC(=O)CCC(=O)Nc2ccc(cc2)C[C@@H](C(=O)O)NC1=O` [Compound 66] ([d2Thi][Bip]E(OtBu)[Phe(4-NH2)]-OH; linker N-4 via Suc), the IC50 was more than 100 µM.
Take `CC(C)(C)OC(=O)CC[C@H]1NC(=O)[C@H](Cc2ccc(-c3ccccc3)cc2)NC(=O)[C@@H](Cc2cccs2)NC(=O)CCC(=O)Nc2ccc(cc2)C[C@@H](C(=O)O)NC1=O` [Compound 67] ([d2Thi][Bip][dE](OtBu)[Phe(4-NH2)]-OH; linker N-4 via Suc): the IC50 fell in the range of 30 to 100 µM.
With `O=C(O)CC[C@@H]1NC(=O)[C@H](Cc2ccc(-c3ccccc3)cc2)NC(=O)[C@@H](Cc2cccs2)NC(=O)CCC(=O)Nc2ccc(cc2)C[C@@H](C(=O)O)NC1=O` [Compound 68] ([d2Thi][Bip]E[Phe(4-NH2)]-OH; linker N-4 via Suc), the IC50 was more than 100 µM.
Consider `O=C(O)CC[C@H]1NC(=O)[C@H](Cc2ccc(-c3ccccc3)cc2)NC(=O)[C@@H](Cc2cccs2)NC(=O)CCC(=O)Nc2ccc(cc2)C[C@@H](C(=O)O)NC1=O` [Compound 69] ([d2Thi][Bip][dE][Phe(4-NH2)]-OH; linker N-4 via Suc), for which the IC50 was more than 100 µM.
On to `N=C(N)NCCC[C@@H]1NC(=O)[C@H](Cc2ccc(-c3ccccc3)cc2)NC(=O)[C@@H](Cc2cccs2)NC(=O)CCC(=O)Nc2ccc(cc2)C[C@@H](C(=O)O)NC1=O` [Compound 72] ([d2Thi][Bip]R[Phe(4-NH2)]-OH; linker N-4 via Suc), for which the IC50 was more than 100 µM.
In the case of `N=C(N)NCCC[C@H]1NC(=O)[C@H](Cc2ccc(-c3ccccc3)cc2)NC(=O)[C@@H](Cc2cccs2)NC(=O)CCC(=O)Nc2ccc(cc2)C[C@@H](C(=O)O)NC1=O` [Compound 73] ([d2Thi][Bip][dR][Phe(4-NH2)]-OH; linker N-4 via Suc), the IC50 was more than 100 µM.
With `O=C1CCC(=O)N[C@H](Cc2cccs2)C(=O)N[C@@H](Cc2ccc(-c3ccccc3)cc2)C(=O)N[C@H](Cc2cccs2)C(=O)N[C@H](C(=O)O)Cc2ccc(cc2)N1` [Compound 74] ([d2Thi][Bip][d2Thi][Phe(4-NH2)]-OH; linker N-4 via Suc), the IC50 was in the range of 30 to 100 µM.
On to `O=C1CCC(=O)N[C@H](Cc2cccs2)C(=O)N[C@@H](Cc2ccc(-c3ccccc3)cc2)C(=O)N[C@H](Cc2ccsc2)C(=O)N[C@H](C(=O)O)Cc2ccc(cc2)N1` [Compound 75] ([d2Thi][Bip][d3Thi][Phe(4-NH2)]-OH; linker N-4 via Suc), for which the IC50 fell in the range of 30 to 100 µM.
For `O=C1CCC(=O)N[C@H](Cc2cccs2)C(=O)N[C@@H](Cc2ccc(-c3ccccc3)cc2)C(=O)N[C@H](c2ccccc2)C(=O)N[C@H](C(=O)O)Cc2ccc(cc2)N1` [Compound 76] ([d2Thi][Bip][dPhg][Phe(4-NH2)]-OH; linker N-4 via Suc), the IC50 was 10 to 30 µM.
As for `O=C1CCC(=O)N[C@H](Cc2cccs2)C(=O)N[C@@H](Cc2ccc(-c3ccccc3)cc2)C(=O)N[C@H](Cc2ccccc2C(F)(F)F)C(=O)N[C@H](C(=O)O)Cc2ccc(cc2)N1` [Compound 77] ([d2Thi][Bip][dPhe(2-CF3)][Phe(4-NH2)]-OH; linker N-4 via Suc), the IC50 lay in the range of 30 to 100 µM.
In the case of `O=C1CCC(=O)N[C@H](Cc2cccs2)C(=O)N[C@@H](Cc2ccc(-c3ccccc3)cc2)C(=O)N[C@H](Cc2cccc(C(F)(F)F)c2)C(=O)N[C@H](C(=O)O)Cc2ccc(cc2)N1` [Compound 78] ([d2Thi][Bip][dPhe(3-CF3)][Phe(4-NH2)]-OH; linker N-4 via Suc), the IC50 is more than 100 µM.
For `O=C1CCC(=O)N[C@H](Cc2cccs2)C(=O)N[C@@H](Cc2ccc(-c3ccccc3)cc2)C(=O)N[C@H](Cc2ccc(C(F)(F)F)cc2)C(=O)N[C@H](C(=O)O)Cc2ccc(cc2)N1` [Compound 79] ([d2Thi][Bip][dPhe(4-CF3)][Phe(4-NH2)]-OH; linker N-4 via Suc), the IC50 is more than 100 µM.
With `Cc1ccccc1C[C@H]1NC(=O)[C@H](Cc2ccc(-c3ccccc3)cc2)NC(=O)[C@@H](Cc2cccs2)NC(=O)CCC(=O)Nc2ccc(cc2)C[C@@H](C(=O)O)NC1=O` [Compound 80] ([d2Thi][Bip][dPhe(2-Me)][Phe(4-NH2)]-OH; linker N-4 via Suc), the IC50 was more than 100 µM.
Turning to `O=C1CCC(=O)N[C@H](Cc2cccs2)C(=O)N[C@@H](Cc2ccc(-c3ccccc3)cc2)C(=O)N[C@H](Cc2ccc(Cl)cc2)C(=O)N[C@H](C(=O)O)Cc2ccc(cc2)N1` [Compound 81] ([d2Thi][Bip][dPhe(4-Cl)][Phe(4-NH2)]-OH; linker N-4 via Suc), the IC50 was more than 100 µM.
To `O=C1CCC(=O)N[C@H](Cc2cccs2)C(=O)N[C@@H](Cc2ccccc2)C(=O)N[C@H](Cc2ccccc2)C(=O)N[C@H](C(=O)O)Cc2ccc(cc2)N1` [Compound 83] ([d2Thi]F[dF][Phe(4-NH2)]-OH; linker N-4 via Suc) belongs more than 100 µM; to `O=C1CCC(=O)N[C@H](Cc2cccs2)C(=O)N[C@@H](CC2CCCCC2)C(=O)N[C@H](Cc2ccccc2)C(=O)N[C@H](C(=O)O)Cc2ccc(cc2)N1` [Compound 84] ([d2Thi][Cha][dF][Phe(4-NH2)]-OH; linker N-4 via Suc), more than 100 µM.

For the origin of these results see patent US8338565B2, “Macrocyclic compounds for inhibition of tumor necrosis factor alpha” (Ensemble Therapeutics Corporation, priority 2008, dated 2012).
